pIC50: −log10 of the molar value.

For one assay, the target named is human orexin-1 receptor (Homo sapiens (Human), UniProt O43613). Briefly: In vitro assay: intracellular calcium measurements (FLIPR), antagonistic activity. The format is cell-based. The conditions noted are these: CHO cells expressing human orexin-1 receptor, orexin-A agonist, geometric mean, read-out: IC50 Ox1. The method in brief:
(§1)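 Read-out: FLIPR fluo-4 calcium peak height in CHO cells bearing human orexin-1 or orexin-2 receptor, relative to orexin-A (approx. EC70) with vehicle. Antagonist preincubation 120 min; agonist orexin-A at 3 nM final. IC50 possibly normalized to an on-plate reference compound.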

The target of another assay is human orexin-2 receptor (Homo sapiens (Human), UniProt O43614). Described as above. The format is cell-based. The settings on record: CHO cells expressing human orexin-2 receptor, orexin-A agonist, geometric mean, read-out: IC50 Ox2. Put shortly:
as §1

human orexin-1 receptor, sequence (O43613 whole entry): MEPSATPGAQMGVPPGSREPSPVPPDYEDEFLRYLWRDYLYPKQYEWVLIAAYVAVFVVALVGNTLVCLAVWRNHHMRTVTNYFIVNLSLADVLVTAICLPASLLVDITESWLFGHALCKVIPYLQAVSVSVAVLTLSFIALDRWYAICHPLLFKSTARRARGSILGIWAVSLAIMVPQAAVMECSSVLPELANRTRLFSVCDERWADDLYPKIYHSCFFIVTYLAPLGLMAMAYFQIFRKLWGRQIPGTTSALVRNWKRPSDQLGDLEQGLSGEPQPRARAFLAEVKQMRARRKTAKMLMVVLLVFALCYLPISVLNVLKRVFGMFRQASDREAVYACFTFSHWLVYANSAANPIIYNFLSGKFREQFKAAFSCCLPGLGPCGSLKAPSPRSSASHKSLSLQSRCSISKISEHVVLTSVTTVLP
human orexin-2 receptor, sequence (O43614 whole entry): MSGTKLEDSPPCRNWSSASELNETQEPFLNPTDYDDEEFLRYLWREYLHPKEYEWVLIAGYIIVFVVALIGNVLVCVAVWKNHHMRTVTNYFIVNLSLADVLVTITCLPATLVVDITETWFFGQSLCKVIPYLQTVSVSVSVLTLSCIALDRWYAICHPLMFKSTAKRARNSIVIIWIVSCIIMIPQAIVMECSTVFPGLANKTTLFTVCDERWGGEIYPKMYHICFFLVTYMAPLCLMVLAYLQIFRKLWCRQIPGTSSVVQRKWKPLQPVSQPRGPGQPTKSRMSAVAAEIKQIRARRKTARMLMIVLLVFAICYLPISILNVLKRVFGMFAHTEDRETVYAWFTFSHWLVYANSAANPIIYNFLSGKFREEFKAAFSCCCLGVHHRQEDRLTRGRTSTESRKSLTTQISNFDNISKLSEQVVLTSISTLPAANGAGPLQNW

For the molecule `Cc1ccc(-c2cccc(OC(F)(F)F)c2)c(C(=O)N2CCC[C@@]2(C)c2nc3cc(C(F)(F)F)c(Cl)cc3[nH]2)c1` [Ex. 5.163], the values for the pIC50 on human orexin-1 receptor and at human orexin-2 receptor were 6.85 and 6.40, respectively.
In the case of `COc1ccc(-n2nccn2)c(C(=O)N2CCC[C@@]2(C)c2nc3cc(F)c(Br)cc3[nH]2)c1F` [Ex. 5.132], the pIC50 (as a rule, the negative decadic logarithm of the IC50, by convention in mol/L) is 7.27 on human orexin-1 receptor and 6.21 at human orexin-2 receptor.
Regarding `Cc1ccc(-n2cccn2)c(C(=O)N2CCC[C@@]2(C)c2nc3cc(C)c(C)cc3[nH]2)c1` [Ex. 5.59], the figures for the pIC50 on human orexin-1 receptor and at human orexin-2 receptor were 7.38 and 7.08, respectively.
Take `CSc1cccc2nc([C@@H]3CCCN3C(=O)c3cc(C#N)ccc3-n3nccn3)[nH]c12` [Ex. 1.167]: the pIC50 is 7.01 on human orexin-1 receptor and 7.82 at human orexin-2 receptor.
The matching figures for `C=C1C[C@@H](c2nc3ccc(Cl)c(C)c3[nH]2)N(C(=O)c2nc(C)sc2-c2cccc(C(F)(F)F)c2)C1` [Ex. 6.120]: 8.10 and 9.22.
The matching figures for `C=C1C[C@@H](c2nc3cc(OC)ccc3[nH]2)N(C(=O)c2nc(C)sc2-c2ccc(Br)cc2)C1` [Ex. 6.22]: 6.39 and 7.72.
As to `Cc1ccc(C(=O)N2CCC[C@@]2(C)c2nc3cc(C(F)(F)F)ccc3[nH]2)c(-n2nccn2)c1` [Ex. 5.171], the pIC50 at human orexin-1 receptor is 7.92; at human orexin-2 receptor it was 7.24.
As for `C=C1CC(c2nc3c(C)cccc3[nH]2)N(C(=O)c2nc(C3CC3)sc2-c2cccc(C)c2)C1` (stereo not drawn) [Ex. 6.94], the results for the pIC50 on human orexin-1 receptor and on human orexin-2 receptor were 8.70 and 9.00, respectively.
Take `CO[C@@H]1C[C@@H](c2nc3ccc(Cl)c(C)c3[nH]2)N(C(=O)c2ccc(C)cc2-n2nccn2)C1` [Ex. 3.15]: the pIC50 at human orexin-1 receptor is 7.02; at human orexin-2 receptor it was 8.40.
With `Cc1nc(C(=O)N2CC[C@H](C)[C@H]2c2nc3c(C(C)C)cccc3[nH]2)c(-c2cccc(Cl)c2)s1` [Ex. 4.25], the pIC50 was 8.40 on human orexin-1 receptor and 6.36 at human orexin-2 receptor.
The matching figures for `C=C1CC(c2nc3c(C)c(Cl)ccc3[nH]2)N(C(=O)c2nc(C3CC3)sc2-c2cccc(C)c2)C1` (stereo not drawn) [Ex. 6.89]: 8.70 and 8.70.
In the case of `CSc1ccc2nc([C@@H]3CCCN3C(=O)c3cnc(C)nc3-c3ccc(C)c(C)c3)[nH]c2c1` [Ex. 1.55], the pIC50 at human orexin-1 receptor was 7.46; on human orexin-2 receptor, 8.00.
Turning to `CSc1ccc2nc([C@@H]3CCCN3C(=O)c3cncnc3-c3ccc(Br)c(Cl)c3)[nH]c2c1` [Ex. 1.54], the pIC50 on human orexin-1 receptor is 6.14; at human orexin-2 receptor, 7.10.
The matching figures for `COc1ccc(-c2nccnc2C(=O)N2CCC[C@H]2c2nc3cccc(SC)c3[nH]2)cc1` [Ex. 1.72]: 6.95 and 6.74.
`COc1ccc(-c2ccc(C)cc2)c(C(=O)N2CCC[C@@]2(C)c2nc3ccc(Cl)c(C)c3[nH]2)c1F` [Ex. 5.302]: the pIC50 at human orexin-1 receptor is 7.55; on human orexin-2 receptor, 7.38.
For the molecule `CO[C@H]1CN(C(=O)c2cc(C)ccc2-n2nccn2)[C@](C)(c2nc3c(C)c(Cl)ccc3[nH]2)C1` [Ex. 3.30], the negative logarithm of the IC50 (pIC50) on human orexin-1 receptor and at human orexin-2 receptor was 8.70 throughout.
Consider `CSc1cccc2[nH]c([C@@H]3CCCN3C(=O)c3nc(C)ccc3-n3nccn3)nc12` [Ex. 1.175], for which the pIC50 at human orexin-1 receptor was 6.28; at human orexin-2 receptor it was 7.12.
Consider `Cc1c(Cl)ccc2[nH]c([C@]3(C)CCCN3C(=O)c3c(F)cccc3-c3ccccn3)nc12` [Ex. 5.221], for which the pIC50 is 7.72 on human orexin-1 receptor and 7.08 at human orexin-2 receptor.
The matching figures for `Cc1cc(C(=O)N2CCC[C@@]2(C)c2nc3c(F)c(F)ccc3[nH]2)c(-n2nccn2)cc1C` [Ex. 5.199]: 7.92 and 7.08.
Consider `C=C1C[C@@H](c2nc3c(C)cc(C)cc3[nH]2)N(C(=O)c2nc(C)sc2-c2ccc(C)c(C)c2)C1` [Ex. 6.58], for which the pIC50 is 8.40 at human orexin-1 receptor and 9.00 on human orexin-2 receptor.
For the molecule `CSc1ccc2nc([C@@H]3CCCN3C(=O)c3cc(F)ccc3-n3nccn3)[nH]c2c1` [Ex. 1.147], the results for the pIC50 at human orexin-1 receptor and on human orexin-2 receptor were 6.16 and 7.62, respectively.
As for `Cc1ccc(C(=O)N2CC[C@H](C)[C@H]2c2nc3c(C)cc(Cl)cc3[nH]2)c(-n2nccn2)c1` [Ex. 4.93], the values for the pIC50 on human orexin-1 receptor and on human orexin-2 receptor were 8.40 and 7.13, respectively.
The matching figures for `Cc1ccc(-n2cccn2)c(C(=O)N2CCC[C@@]2(C)c2nc3cc(C(F)(F)F)c(Cl)cc3[nH]2)n1` [Ex. 5.143]: 8.15 and 7.09.
In the case of `Cc1ccc(-c2ccc(F)cc2)c(C(=O)N2CCC[C@@]2(C)c2nc3c(C)c(C)ccc3[nH]2)c1` [Ex. 5.115], the pIC50 at human orexin-1 receptor is 7.66; at human orexin-2 receptor, 7.74.
For the molecule `Cc1ccc(-n2nccn2)c(C(=O)N2CCC[C@@]2(C)c2nc3c(F)c(F)ccc3[nH]2)n1` [Ex. 5.205], the negative logarithm of the IC50 (pIC50) at human orexin-1 receptor is 6.83; at human orexin-2 receptor, 6.07.
In the same order, the values of `COc1ccc2nc([C@@H]3C[C@@H](OC)CN3C(=O)c3cc(C)c(C)cc3-n3nccn3)[nH]c2c1` [Ex. 3.22] are 6.24 and 8.05.
`Cc1nc(C(=O)N2CC[C@H](C)[C@H]2c2nc3c(C(F)(F)F)cccc3[nH]2)c(-c2cccc(Cl)c2)s1` [Ex. 4.19]: the negative-log IC50 (pIC50) on human orexin-1 receptor is 8.70; at human orexin-2 receptor, 6.37.
On to `Cc1ccc(C(=O)N2CC[C@H](C)[C@H]2c2nc3c(C)c(Cl)ccc3[nH]2)c(-c2ncccn2)c1` [Ex. 4.174], for which the negative-log IC50 (pIC50) is 7.92 at human orexin-1 receptor and 6.88 on human orexin-2 receptor.
For `CSc1ccc2[nH]c([C@@H]3CCCN3C(=O)c3nc(C)sc3-c3cccc(Cl)c3)nc2c1` [Ex. 1.15], the pIC50 at human orexin-1 receptor was 7.17; on human orexin-2 receptor it was 7.35.
Turning to `Cc1c(Cl)ccc2[nH]c([C@@H]3[C@@H](C)CCN3C(=O)c3cc(Cl)ccc3-n3nccn3)nc12` [Ex. 4.60], the figures for the pIC50 at human orexin-1 receptor and on human orexin-2 receptor were 8.70 and 7.19, respectively.
`C=C1C[C@@H](c2nc3c(OC)ccc(OC)c3[nH]2)N(C(=O)c2cc(C)ccc2-n2nccn2)C1` [Ex. 6.68]: the negative logarithm of the IC50 (pIC50) on human orexin-1 receptor was 6.12; on human orexin-2 receptor, 7.21.
In the same order, the values of `Cc1nc(C(=O)N2C[C@H](F)C[C@H]2c2nc3c(C)cccc3[nH]2)c(-c2cccc(Cl)c2)s1` [Ex. 2.9] are 7.77 and 7.74.
The matching figures for `Cc1nc(C(=O)N2CC[C@H](C)[C@H]2c2nc3c(Cl)cccc3[nH]2)c(-c2ccc(Br)cc2)s1` [Ex. 4.123]: 7.68 and 6.06.
In the same order, the values of `Cc1ccc(-c2cccnc2)c(C(=O)N2CC[C@H](C)[C@H]2c2nc3c(C)c(Cl)ccc3[nH]2)c1` [Ex. 4.163] are 7.70 and 5.36.
With `C=C1C[C@@H](c2nc3cc(C(C)(C)C)ccc3[nH]2)N(C(=O)c2c(-n3nccn3)ccc(OC)c2F)C1` [Ex. 6.163], the pIC50 on human orexin-1 receptor was 6.59; on human orexin-2 receptor, 7.14.
Turning to `Cc1ccc(-c2nc(C(=O)N3CCC[C@@]3(C)c3nc4c(C)c(Cl)ccc4[nH]3)c(-c3ccc(F)cc3)s2)cc1C` [Ex. 5.254], the pIC50 on human orexin-1 receptor is 7.41; on human orexin-2 receptor, 5.03.
With `C=C1CC(c2nc3cc(OC)ccc3[nH]2)N(C(=O)c2nc(C3CC3)sc2-c2cccc(C)c2)C1` (racemic) [Ex. 6.86], the pIC50 at human orexin-1 receptor was 7.66; at human orexin-2 receptor it was 7.70.
For the molecule `Cc1ccc(-c2ncccn2)c(C(=O)N2CC[C@H](C)[C@H]2c2nc3cc(Cl)c(C)cc3[nH]2)c1` [Ex. 4.180], the pIC50 on human orexin-1 receptor is 8.10; on human orexin-2 receptor, 6.52.
As to `C=C1CC(c2nc3c(Br)cccc3[nH]2)N(C(=O)c2nc(C3CC3)sc2-c2cccc(C)c2)C1` (stereo not drawn) [Ex. 6.93], the negative logarithm of the IC50 (pIC50) on human orexin-1 receptor is 9.05; at human orexin-2 receptor, 8.52.
For the molecule `Cc1cccc(-c2ccccc2C(=O)N2CCC[C@@]2(C)c2nc3cc(C)c(C)cc3[nH]2)c1` [Ex. 5.106], the pIC50 at human orexin-1 receptor was 7.60; at human orexin-2 receptor, 7.43.
For the molecule `COc1cc2nc([C@]3(C)CCCN3C(=O)c3cc(C)c(C)cc3-n3nccn3)n(C)c2cc1OC` [Ex. 7.13], the pIC50 on human orexin-1 receptor is 7.68; at human orexin-2 receptor, 7.31.
Regarding `C=C1C[C@@H](c2nc3c(Br)cccc3[nH]2)N(C(=O)c2nc(C)sc2-c2ccc(C)c(C)c2)C1` [Ex. 6.50], the pIC50 was 8.30 on human orexin-1 receptor and 9.00 on human orexin-2 receptor.
Turning to `CSc1cccc2nc([C@@H]3CCCN3C(=O)c3cc(C)ccc3-n3nccn3)[nH]c12` [Ex. 1.5], the pIC50 at human orexin-1 receptor was 7.25; on human orexin-2 receptor, 7.64.
The matching figures for `C=C1CC(c2nc3cccc(Cl)c3[nH]2)N(C(=O)c2nc(C3CC3)sc2-c2cccc(C)c2)C1` (racemic) [Ex. 6.99]: 8.30 and 9.00.
Consider `Cc1cccc(-c2ccc(C)cc2C(=O)N2CCC[C@@]2(C)c2nc3cc(C)c(C)cc3[nH]2)c1` [Ex. 5.99], for which the results for the pIC50 at human orexin-1 receptor and at human orexin-2 receptor were 8.22 and 7.96, respectively.
In the same order, the values of `COc1cc2nc([C@]3(C)CCCN3C(=O)c3c(-n4nccn4)ccc(OC)c3F)[nH]c2cc1OC` [Ex. 5.69] are 6.38 and 5.92.
As to `Cc1ccc(-c2ccc3c(c2)OCO3)c(C(=O)N2CCC[C@@]2(C)c2nc3cc(C(F)(F)F)ccc3[nH]2)c1` [Ex. 5.198], the pIC50 at human orexin-1 receptor is 7.74; on human orexin-2 receptor it was 7.47.
The matching figures for `CSc1ccc2nc([C@@H]3CCCN3C(=O)c3nc(C)sc3-c3ccc(C)cc3)[nH]c2c1` [Ex. 1.40]: 7.13 and 7.64.
`C=C1C[C@@H](c2nc3ccc(OC)cc3[nH]2)N(C(=O)c2cc(OC)ccc2-n2nccn2)C1` [Ex. 6.140]: the results for the negative logarithm of the IC50 (pIC50) on human orexin-1 receptor and on human orexin-2 receptor were 6.18 and 8.00, respectively.
Regarding `CSc1ccc2nc([C@@H]3CCCN3C(=O)c3cncnc3-c3ccc(C)c(C)c3)[nH]c2c1` [Ex. 1.53], the negative-log IC50 (pIC50) is 6.21 on human orexin-1 receptor and 7.05 at human orexin-2 receptor.
In the same order, the values of `C=C1C[C@@H](c2nc3cc(OC)ccc3[nH]2)N(C(=O)c2ccsc2-c2ccc(C)c(C)c2)C1` [Ex. 6.39] are 6.97 and 8.05.

The record behind these values is patent US9732075B2, “Benzimidazole-proline derivatives” (IDORSIA PHARMACEUTICALS LTD, priority 2012, dated 2017).
